Measurements reported in paper PMC5218480 (PLoS ONE, 2017).

Tested on: MV-4-11 cells
Assay: Gene expression microarray analysis (Affymetrix PrimeView) and GSEA
Type: cell-based, human
Set-up: RFU PODN (11730768_x_at) / Fold change /veh PODN (11730768_x_at) / RFU LINC00158 (11744669_a_at) / Fold change /veh LINC00158 (11744669_a_at) / RFU DUSP10 (11751237_a_at) / Fold change /veh DUSP10 (11751237_a_at) / RFU ID3 (11757404_x_at) / Fold change /veh ID3 (11757404_x_at) / RFU PLEKHG5 (11737974_s_at) / Fold change /veh PLEKHG5 (11737974_s_at) / RFU LRRC4B (11730491_at) / Fold change /veh LRRC4B (11730491_at) / RFU GIMAP4 (11747438_a_at) / Fold change /veh GIMAP4 (11747438_a_at) / RFU KRT8 (11758183_x_at) / Fold change /veh KRT8 (11758183_x_at) / RFU CNN1 (11734310_a_at) / Fold change /veh CNN1 (11734310_a_at) / RFU VPS37D (11726825_at) / Fold change /veh VPS37D (11726825_at) / RFU C10orf10 (11716522_x_at) / Fold change /veh C10orf10 (11716522_x_at) / RFU KIR2DL2 /// KIR2DL4 /// KIR2DL5A /// KIR2DL5B /// KIR2DS1 /// KIR2DS2 /// KIR2DS3 /// KIR2DS4 /// KIR3DL3 /// KIR3DL3 /// KIR3DS1 (11738374_at) / Fold change /veh KIR2DL2 /// KIR2DL4 /// KIR2DL5A /// KIR2DL5B /// KIR2DS1 /// KIR2DS2 /// KIR2DS3 /// KIR2DS4 /// KIR3DL3 /// KIR3DL3 /// KIR3DS1 (11738374_at) / RFU C1QL1 (11718748_at) / Fold change /veh C1QL1 (11718748_at) / RFU TMPRSS4 (11747572_a_at) / Fold change /veh TMPRSS4 (11747572_a_at) / RFU HAMP (11756126_x_at) / Fold change /veh HAMP (11756126_x_at) / RFU RNFT2 (11725882_a_at) / Fold change /veh RNFT2 (11725882_a_at) / RFU NR4A2 (11747474_a_at) / Fold change /veh NR4A2 (11747474_a_at) / RFU ABCC12 (11746883_a_at) / Fold change /veh ABCC12 (11746883_a_at) / RFU TMEM136 (11760407_x_at) / Fold change /veh TMEM136 (11760407_x_at) / RFU CLDN22 /// WWC2 (11732394_at) / Fold change /veh CLDN22 /// WWC2 (11732394_at) / RFU HLA-DPB1 (11760878_x_at) / Fold change /veh HLA-DPB1 (11760878_x_at) / RFU SPINT1 (11716480_a_at) / Fold change /veh SPINT1 (11716480_a_at) / RFU GAP43 (11754022_s_at) / Fold change /veh GAP43 (11754022_s_at) / RFU A4GNT (11735810_at) / Fold change /veh A4GNT (11735810_at) / RFU PRB3 (11715151_x_at) / Fold change /veh PRB3 (11715151_x_at) / RFU TUBB4B (11761932_at) / Fold change /veh TUBB4B (11761932_at) / RFU CAPN14 (11732068_a_at) / Fold change /veh CAPN14 (11732068_a_at) / RFU TMCC2 (11721928_a_at) / Fold change /veh TMCC2 (11721928_a_at) / RFU IRGQ (11745062_a_at) / Fold change /veh IRGQ (11745062_a_at) / RFU FAM174B (11720279_a_at) / Fold change /veh FAM174B (11720279_a_at) / RFU TMPRSS4 (11748680_a_at) / Fold change /veh TMPRSS4 (11748680_a_at) / RFU FAM212B (11763350_a_at) / Fold change /veh FAM212B (11763350_a_at) / RFU PLEKHG5 (11743358_a_at) / Fold change /veh PLEKHG5 (11743358_a_at) / RFU ZSCAN30 (11745921_a_at) / Fold change /veh ZSCAN30 (11745921_a_at) / RFU CMKLR1 (11741424_a_at) / Fold change /veh CMKLR1 (11741424_a_at) / RFU LOC101060620 /// MAPK8IP1 (11723275_at) / Fold change /veh LOC101060620 /// MAPK8IP1 (11723275_at) / RFU SPTSSB (11747773_x_at) / Fold change /veh SPTSSB (11747773_x_at) / RFU PRSS12 (11739890_at) / Fold change /veh PRSS12 (11739890_at) / RFU BIN1 (11741810_x_at) / Fold change /veh BIN1 (11741810_x_at) / RFU WNT11 (11732464_a_at) / Fold change /veh WNT11 (11732464_a_at) / RFU C10orf10 (11716521_a_at) / Fold change /veh C10orf10 (11716521_a_at) / RFU C5orf56 (11738089_at) / Fold change /veh C5orf56 (11738089_at) / RFU CYB561 (11721691_x_at) / Fold change /veh CYB561 (11721691_x_at) / RFU ANKRD19P (11752326_a_at) / Fold change /veh ANKRD19P (11752326_a_at) / RFU OR2T12 /// OR2T33 /// OR2T8 (11738714_s_at) / Fold change /veh OR2T12 /// OR2T33 /// OR2T8 (11738714_s_at) / RFU VCAN (11748164_a_at) / Fold change /veh VCAN (11748164_a_at) / RFU JSRP1 (11732532_at) / Fold change /veh JSRP1 (11732532_at) / RFU KRTAP10-11 (11738290_x_at) / Fold change /veh KRTAP10-11 (11738290_x_at) / RFU MYO3A (11730013_a_at) / Fold change /veh MYO3A (11730013_a_at) / RFU EBF3 (11725865_a_at) / Fold change /veh EBF3 (11725865_a_at) / RFU CAMK2N1 (11719241_x_at) / Fold change /veh CAMK2N1 (11719241_x_at) / RFU C5orf56 (11738088_a_at) / Fold change /veh C5orf56 (11738088_a_at) / RFU OLFML3 (11715873_a_at) / Fold change /veh OLFML3 (11715873_a_at) / RFU LOC100653217 /// NTM (11731650_a_at) / Fold change /veh LOC100653217 /// NTM (11731650_a_at) / RFU MAPK11 (11762145_a_at) / Fold change /veh MAPK11 (11762145_a_at) / RFU FIZ1 (11724087_x_at) / Fold change /veh FIZ1 (11724087_x_at) / RFU OASL (11726364_x_at) / Fold change /veh OASL (11726364_x_at) / RFU SOX15 (11748057_x_at) / Fold change /veh SOX15 (11748057_x_at) / RFU CD79A (11719716_a_at) / Fold change /veh CD79A (11719716_a_at) / RFU HIST1H1D (11736915_at) / Fold change /veh HIST1H1D (11736915_at) / RFU CASKIN2 (11723855_a_at) / Fold change /veh CASKIN2 (11723855_a_at) / RFU LOC730098 (11760151_x_at) / Fold change /veh LOC730098 (11760151_x_at) / RFU OR4N2 (11742367_at) / Fold change /veh OR4N2 (11742367_at) / RFU PRRT2 (11749266_a_at) / Fold change /veh PRRT2 (11749266_a_at) / RFU SNX32 (11753110_a_at) / Fold change /veh SNX32 (11753110_a_at) / RFU CDHR5 (11726645_a_at) / Fold change /veh CDHR5 (11726645_a_at) / RFU RCAN1 (11760418_a_at) / Fold change /veh RCAN1 (11760418_a_at) / RFU FAM167A (11723789_a_at) / Fold change /veh FAM167A (11723789_a_at) / RFU FAM26E (11764081_at) / Fold change /veh FAM26E (11764081_at) / RFU ISYNA1 (11749810_s_at) / Fold change /veh ISYNA1 (11749810_s_at) / RFU ACY1 (11761880_at) / Fold change /veh ACY1 (11761880_at) / RFU 11764098_at / Fold change /veh 11764098_at / RFU SAMD14 (11745864_x_at) / Fold change /veh SAMD14 (11745864_x_at) / RFU NPB (11741838_a_at) / Fold change /veh NPB (11741838_a_at) / RFU TMPRSS6 (11731388_a_at) / Fold change /veh TMPRSS6 (11731388_a_at) / RFU KRTAP10-2 (11738614_at) / Fold change /veh KRTAP10-2 (11738614_at) / RFU ARHGAP8 /// PRR5-ARHGAP8 (11727945_x_at) / Fold change /veh ARHGAP8 /// PRR5-ARHGAP8 (11727945_x_at) / RFU KRTAP5-7 /// NADSYN1 (11734609_at) / Fold change /veh KRTAP5-7 /// NADSYN1 (11734609_at) / RFU RASL12 (11751679_a_at) / Fold change /veh RASL12 (11751679_a_at) / RFU CDKN2B (11736163_a_at) / Fold change /veh CDKN2B (11736163_a_at) / RFU PRF1 (11729649_at) / Fold change /veh PRF1 (11729649_at) / RFU, ZNF638 /// ZNF638-IT1 / Fold change vs veh, ZNF638 /// ZNF638-IT1 / RFU, PANK3 / Fold change vs veh, PANK3 / RFU, SH3YL1 / Fold change vs veh, SH3YL1 / RFU, ZEB2 / Fold change vs veh, ZEB2 / RFU, NRIP1 / Fold change vs veh, NRIP1 / RFU, PTTG1IP / Fold change vs veh, PTTG1IP / RFU, CAPN2 / Fold change vs veh, CAPN2 / RFU, MED14 / Fold change vs veh, MED14 / RFU, SNORA58 / Fold change vs veh, SNORA58 / RFU, C1orf63 / Fold change vs veh, C1orf63 / RFU, LRRFIP1 / Fold change vs veh, LRRFIP1 / RFU, NDUFAF7 / Fold change vs veh, NDUFAF7 / RFU, SLC12A2 / Fold change vs veh, SLC12A2 / RFU, IBTK / Fold change vs veh, IBTK / RFU, ESF1 / Fold change vs veh, ESF1 / Fold change vs veh, TMEM50B / RFU, TAOK1 / Fold change vs veh, TAOK1 / RFU, ACBD3 / Fold change vs veh, ACBD3 / RFU, TMA16 / Fold change vs veh, TMA16 / RFU, RWDD3 / Fold change vs veh, RWDD3 / RFU, BCAT1 / Fold change vs veh, BCAT1 / RFU, EDEM3 / Fold change vs veh, EDEM3 / RFU, TMEM33 / Fold change vs veh, TMEM33 / RFU, WDR75 / Fold change vs veh, WDR75 / RFU, AHCTF1 / Fold change vs veh, AHCTF1 / RFU, TFRC / Fold change vs veh, TFRC / RFU, ZDHHC17 / Fold change vs veh, ZDHHC17 / RFU, NOM1 / Fold change vs veh, NOM1 / RFU, ARL8B / Fold change vs veh, ARL8B / RFU, ZBTB11 / Fold change vs veh, ZBTB11 / RFU, TAMM41 / Fold change vs veh, TAMM41 / RFU, KIAA1704 /// LOC100996395 / Fold change vs veh, KIAA1704 /// LOC100996395 / RFU, ING1 / Fold change vs veh, ING1 / RFU, TRMT61B / Fold change vs veh, TRMT61B / RFU, FUBP3 / Fold change vs veh, FUBP3 / RFU, TP53 / Fold change vs veh, TP53 / RFU, TNKS2 / Fold change vs veh, TNKS2 / RFU, ZFP14 / Fold change vs veh, ZFP14 / RFU, ACTR2 / Fold change vs veh, ACTR2 / RFU, PPP3R1 / Fold change vs veh, PPP3R1 / RFU, PIK3R1 / Fold change vs veh, PIK3R1 / RFU, HNRNPA1 / Fold change vs veh, HNRNPA1 / RFU, RNF170 / Fold change vs veh, RNF170 / RFU, ZNF28 / Fold change vs veh, ZNF28 / RFU, RNGTT / Fold change vs veh, RNGTT / RFU, OGT / Fold change vs veh, OGT / RFU, BRD1 / Fold change vs veh, BRD1 / RFU, MARS / Fold change vs veh, MARS / RFU, ZNF655 / Fold change vs veh, ZNF655 / RFU, FAHD1 / Fold change vs veh, FAHD1 / RFU, BDP1 / Fold change vs veh, BDP1 / RFU, LRRCC1 / Fold change vs veh, LRRCC1 / RFU, ARID1A / Fold change vs veh, ARID1A / RFU, ZNF146 / Fold change vs veh, ZNF146 / RFU, ZNF330 / Fold change vs veh, ZNF330 / RFU, GPN3 / Fold change vs veh, GPN3 / RFU, C9orf123 / Fold change vs veh, C9orf123 / RFU, N4BP2L2 / Fold change vs veh, N4BP2L2 / RFU, ARFIP1 / Fold change vs veh, ARFIP1 / RFU, FAM179B / Fold change vs veh, FAM179B / RFU, BCL10 / Fold change vs veh, BCL10 / RFU, UHRF1BP1L / Fold change vs veh, UHRF1BP1L / RFU, BET1 / Fold change vs veh, BET1 / RFU, CNOT2 / Fold change vs veh, CNOT2 / RFU, ZNF268 / Fold change vs veh, ZNF268 / Fold change vs veh, ZNF507 / RFU, DGCR2 / Fold change vs veh, DGCR2 / RFU, WDSUB1 / Fold change vs veh, WDSUB1 / Fold change vs veh, HSP90B1 /// MIR3652 / RFU, ADSS / Fold change vs veh, ADSS / RFU, GK / Fold change vs veh, GK / RFU, ZNF148 / Fold change vs veh, ZNF148 / RFU, TAF9 / Fold change vs veh, TAF9 / RFU, SLC1A5 / Fold change vs veh, SLC1A5 / RFU, SLMO2 / Fold change vs veh, SLMO2 / RFU, ABCC4 / Fold change vs veh, ABCC4 / RFU, LOC101060439 /// RAP1B / Fold change vs veh, LOC101060439 /// RAP1B / RFU, RFX7 / Fold change vs veh, RFX7 / RFU, GTPBP10 / Fold change vs veh, GTPBP10 / RFU, CNEP1R1 / Fold change vs veh, CNEP1R1 / RFU, BIVM-ERCC5 /// ERCC5 / Fold change vs veh, BIVM-ERCC5 /// ERCC5 / RFU, ILF3 / Fold change vs veh, ILF3 / RFU 11762660_at / Fold change /veh 11762660_at / RFU VCAN (11757783_s_at) / Fold change /veh VCAN (11757783_s_at) / RFU DDX43 (11728927_at) / Fold change /veh DDX43 (11728927_at) / RFU KRT8 (11758188_x_at) / Fold change /veh KRT8 (11758188_x_at) / RFU NKD1 (11759106_at) / Fold change /veh NKD1 (11759106_at) / RFU SRD5A1 (11742802_a_at) / Fold change /veh SRD5A1 (11742802_a_at) / RFU TPSAB1 /// TPSB2 (11721975_s_at) / Fold change /veh TPSAB1 /// TPSB2 (11721975_s_at) / RFU GSTM3 (11746129_a_at) / Fold change /veh GSTM3 (11746129_a_at) / RFU IL23R (11737362_x_at) / Fold change /veh IL23R (11737362_x_at) / RFU TMEM51 (11727254_a_at) / Fold change /veh TMEM51 (11727254_a_at) / RFU PIWIL2 (11732686_x_at) / Fold change /veh PIWIL2 (11732686_x_at) / RFU ORM1 (11744905_x_at) / Fold change /veh ORM1 (11744905_x_at) / RFU CCDC152 (11743942_at) / Fold change /veh CCDC152 (11743942_at) / RFU ECM1 (11717891_a_at) / Fold change /veh ECM1 (11717891_a_at) / RFU IL23R (11748794_a_at) / Fold change /veh IL23R (11748794_a_at) / RFU TNFAIP8L3 (11732012_x_at) / Fold change /veh TNFAIP8L3 (11732012_x_at) / RFU MBOAT4 (11741988_at) / Fold change /veh MBOAT4 (11741988_at) / RFU 11764193_at / Fold change /veh 11764193_at / RFU TMEM53 (11763286_at) / Fold change /veh TMEM53 (11763286_at) / RFU MAGEB2 (11727129_at) / Fold change /veh MAGEB2 (11727129_at) / RFU TMEM200A (11744735_a_at) / Fold change /veh TMEM200A (11744735_a_at) / RFU CCDC152 (11751479_a_at) / Fold change /veh CCDC152 (11751479_a_at) / RFU FAM211A (11726209_a_at) / Fold change /veh FAM211A (11726209_a_at) / RFU RGS16 (11746705_a_at) / Fold change /veh RGS16 (11746705_a_at) / RFU VCAN (11755009_s_at) / Fold change /veh VCAN (11755009_s_at) / RFU RHOB (11743442_s_at) / Fold change /veh RHOB (11743442_s_at) / RFU RGS16 (11720943_a_at) / Fold change /veh RGS16 (11720943_a_at) / RFU RGS16 (11720944_at) / Fold change /veh RGS16 (11720944_at) / RFU, VPS4B / Fold change vs veh, VPS4B / RFU, CREB1 / Fold change vs veh, CREB1 / RFU, DNAJC13 / Fold change vs veh, DNAJC13 / RFU, GNAQ / Fold change vs veh, GNAQ / RFU, CDK5R1 / Fold change vs veh, CDK5R1 / RFU, ZRANB3 / Fold change vs veh, ZRANB3 / RFU, CUL4A / Fold change vs veh, CUL4A / RFU, CCNY / Fold change vs veh, CCNY / RFU, UFL1 / Fold change vs veh, UFL1 / RFU, COG3 / Fold change vs veh, COG3 / RFU, DIAPH2 / Fold change vs veh, DIAPH2 / RFU, SKA2 / Fold change vs veh, SKA2 / RFU, AFF3 / Fold change vs veh, AFF3 / RFU, LMF1 / Fold change vs veh, LMF1 / RFU, IPO11 / Fold change vs veh, IPO11 / RFU, DFFB / Fold change vs veh, DFFB / RFU, FOXP1 / Fold change vs veh, FOXP1 / RFU, CARD8 / Fold change vs veh, CARD8 / RFU, STRN3 / Fold change vs veh, STRN3 / RFU, ADK / Fold change vs veh, ADK / RFU, RASSF2 / Fold change vs veh, RASSF2 / RFU, WIPF1 / Fold change vs veh, WIPF1 / RFU, LARP1B / Fold change vs veh, LARP1B / RFU, RASA1 / Fold change vs veh, RASA1 / RFU, RB1 / Fold change vs veh, RB1 / RFU, PPFIA1 / Fold change vs veh, PPFIA1 / RFU, MAT2A / Fold change vs veh, MAT2A / RFU, CCT5 / Fold change vs veh, CCT5 / RFU, WDR92 / Fold change vs veh, WDR92 / RFU, CUX1 / Fold change vs veh, CUX1 / RFU, TTC7A / Fold change vs veh, TTC7A / RFU, TMEM135 / Fold change vs veh, TMEM135 / RFU, DEPTOR / Fold change vs veh, DEPTOR / RFU, CPM / Fold change vs veh, CPM / RFU, DNAJB6 / Fold change vs veh, DNAJB6 / RFU, CACNA2D3 / Fold change vs veh, CACNA2D3 / RFU, DTX4 / Fold change vs veh, DTX4 / RFU, TFCP2 / Fold change vs veh, TFCP2 / RFU, GMCL1 /// GMCL1P1 / Fold change vs veh, GMCL1 /// GMCL1P1 / RFU, AEBP2 / Fold change vs veh, AEBP2 / RFU, SNHG1 /// SNORD22 /// SNORD25 /// SNORD26 /// SNORD27 /// SNORD28 /// SNORD29 /// SNORD31 / Fold change vs veh, SNHG1 /// SNORD22 /// SNORD25 /// SNORD26 /// SNORD27 /// SNORD28 /// SNORD29 /// SNORD31 / Fold change (Aza/veh), C12orf56 (ProbeSet 11735607_a_at) / Fold change (ACY-1035/veh), C12orf56 (ProbeSet 11735607_a_at) / Fold change (Aza/veh), FGFR1OP (ProbeSet 11751329_s_at) / Fold change (ACY-1035/veh), FGFR1OP (ProbeSet 11751329_s_at) / Fold change (Aza/veh), VPS36 (ProbeSet 11739960_a_at) / Fold change (ACY-1035/veh), VPS36 (ProbeSet 11739960_a_at) / RFU SYPL1 (11715823_x_at) / Fold change /veh SYPL1 (11715823_x_at) / RFU IGFBP7 (11715501_s_at) / Fold change /veh IGFBP7 (11715501_s_at) / RFU REEP3 (11722064_at) / Fold change /veh REEP3 (11722064_at) / RFU IGLL1 (11728026_x_at) / Fold change /veh IGLL1 (11728026_x_at): dose or concentration left out as unconfirmed
Conditions: MV-4-11 cells, 48 hours

Nc1ncn([C@@H]2O[C@H](CO)[C@@H](O)[C@H]2O)c(=O)n1 [azacitidine]
RFU PLEKHG5 (11743358_a_at): 38.46 RFU
